Experimental data: the METLIN SMRT retention time set (Domingo-Almenara et al. 2019)

Assay: gradient 5% acetonitrile 3 min, to 50% in 2 min, to 85% in 15 min, held 3 min, 100 µL/min
Details: column: Zorbax Extend-C18 2.1 x 50 mm; eluents: water / acetonitrile, 0.1% formic acid
Outline: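 Retention times of pure standards were taken from adduct peaks that were selected by computer and manually inspected. Over 3 months, mixtures of ~100 molecules were run by HPLC–quadrupole time-of-flight mass spectrometry in positive and negative ionization mode. The Zorbax Extend-C18 column (2.1 × 50 mm, 1.8 μm) ran at 100 μL/min in water and acetonitrile, each containing 0.1% formic acid, with 40 μL dead volume and 900 μL dwell volume.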

| Structure (SMILES) | RP-LC retention time |
| --- | --- |
| O=C(Nc1ccc2c(c1)OCO2)C1CCc2sc(C(=O)N3CCCC3)cc2C1 (stereo unspecified) | 730 s |
| CN(C)c1ccc(CNC(=O)CN2c3ccccc3NC3=C(C(=O)CCC3)C2c2ccco2)cc1 (stereo unspecified) | 628 s |
| Cc1ccccc1CNC(=O)C1(C)CCCN(C(=O)Nc2cccc(C)c2C)C1 (stereo unspecified) | 977 s |
| Cc1ccccc1C(=O)Nc1nc(-c2ccc3c(c2)NC(=O)C(C)O3)c(C)s1 (stereo unspecified) | 797 s |
| O=C(Nc1ccc2c(c1)OCCO2)c1cccc2c1CCN2C(=O)Nc1ccc(F)cc1 | 909 s |
| O=C(Nc1cccc(F)c1)N1CCN(c2ncccc2-c2nnc(C3CC3)o2)CC1 | 783 s |
| Cc1ccc(CNc2nc(-c3ccc(Cl)cc3)nc3ccccc23)o1 | 865 s |
| CS(=O)(=O)c1ccccc1C(=O)Nc1nnc(-c2cc(Cl)sc2Cl)o1 | 735 s |
| CCn1cnc2ccc(-c3noc(COc4ccccc4C)n3)cc21 | 807 s |
| Cn1nc(-c2nc(-c3cccc(F)c3)no2)c2c1CCN(C(=O)NC1CCCC1)C2 | 957 s |
| Cc1cccc(NC(=O)C2CCc3nc(N4CCOCC4)ncc3C2)c1 (stereo unspecified) | 786 s |
| Cc1nc([C@@H]2CN(C(=O)CCc3nc4ccccc4[nH]3)C[C@H]2C(N)=O)n[nH]1 | 506 s |
| CSc1ccc(CCNC(=O)c2nnc(-c3ccc(S(=O)(=O)N4CCCC4)cc3)o2)cc1 | 982 s |
| NC(=O)c1cc(=O)[nH]c2ccc(F)cc12 | 558 s |
| O=C(Nc1cc(-c2cccs2)no1)c1cccc(F)c1 | 959 s |
| CCOC(=O)/C(=N\O)C1=CSC2=NNC(C)(C)N12 | 907 s |
| CCOC(=O)c1noc2ncnc(NCCc3ccc(C)cc3)c12 | 1060 s |
| CCn1cc(-c2nc(C)c(C(=O)NCc3cccc(OC)c3)s2)c2cccnc21 | 904 s |
| CN(C(=O)Cc1ccccc1)[C@H](CN1CCCC1)c1ccccc1 | 726 s |
| CC1CCN(C(=O)c2nc(-c3ccnc(N4CCCC4)c3)no2)CC1 | 684 s |
| CN(CCc1noc(-c2ccc(C(=O)N3CCCC3)cc2)n1)C(=O)COc1ccc(Cl)cc1 | 808 s |
| O=C(c1ccccc1)N1CCC(n2c(-c3ccoc3)nc3cccnc32)C1 (stereo unspecified) | 695 s |
| Nc1ncnc2c1ncn2C1CCCO1 (stereo unspecified) | 580 s |

| Structure (SMILES) | RP-LC retention time |
| --- | --- |
| CCC(=O)N1CCc2cc(N3CC(C(=O)NC(C)c4ccccc4)CC3=O)ccc21 (stereo unspecified) | 750 s |
| COc1cc(Cl)c(NC(=O)C2CCN(S(=O)(=O)c3cn(C(C)C)cn3)CC2)c(OC)c1 | 797 s |
| CC(=O)Nc1ccc(NC(=O)C2CCCN(c3nccnc3Sc3ccc(C)cc3)C2)cc1 (stereo unspecified) | 894 s |
| Cc1ccc(Cn2nc3ccc(S(=O)(=O)N4CCCCC4)cn3c2=O)cc1C | 1020 s |
| O=C(c1ccco1)N1CCN(S(=O)(=O)c2ccc(-c3cc(C(F)(F)F)on3)o2)CC1 | 951 s |
| O=C(CN(CC1CCCO1)C(=O)c1cccc(Br)c1)N1CCNCC1 (stereo unspecified) | 602 s |
| Cc1ccc(-c2cnc(N3CCCC(C(=O)NCCC4=CCCCC4)C3)nc2)cc1 (stereo unspecified) | 1290 s |
| O=C(NCc1ccc(F)cc1)c1ccc2ncnc(N3CCCC3)c2c1 | 646 s |
| Cc1[nH]c(C(=O)N2CCC(CC(=O)NC(C)c3ccccc3)CC2)c(C)c1C(=O)OC(C)C (stereo unspecified) | 832 s |
| CCOc1ccc(S(=O)(=O)N2CCC(C(=O)NCc3ccccn3)CC2)cc1C | 680 s |
| Cc1cc(C(=O)N2CCc3nn(C)c(=O)n3CC2)n[nH]1 | 560 s |
| O=C(CC1CCN(S(=O)(=O)c2ccc(Cl)s2)CC1)N1CCN(c2ccccn2)CC1 | 672 s |
| N#Cc1cccc(NC(=O)Cc2csc3nc(-c4ccccc4)cn23)c1 | 782 s |
| CCNC(=O)N1CCc2nc(-c3ccc(F)cc3)ncc2C1 | 752 s |
| COCCCNC(=O)N1CCCCCC1c1ccc(C)cc1 (stereo unspecified) | 939 s |
| Cc1cc(Cl)ccc1S(=O)(=O)N1CC(c2nc(-c3ccncc3)no2)C1 | 931 s |
| CCc1ccc(-c2ccc(SCC(=O)Nc3cc(Cl)ccc3OC)nn2)cc1 | 1180 s |
| CCN1CCN(C(=O)C2CCN(S(=O)(=O)c3c(C)nn(-c4ccc(F)cc4)c3C)CC2)CC1 | 641 s |
| CC(C)(C)C(O)CCNC(=O)NCc1ccc(F)cc1 (stereo unspecified) | 705 s |
| COc1ccc2c(c1)CCc1sc(NC(=O)c3cccc(Br)c3)nc1-2 | 1240 s |
| CN(Cc1ccco1)S(=O)(=O)c1ccc(C(=O)Nc2cccc(Cl)c2Cl)cc1 | 1010 s |
| CCSc1nnc(NC(=O)CSc2nnnn2-c2ccccc2CC)s1 | 887 s |

Results, then the molecule that gave them:

| RP-LC retention time | Structure (SMILES) |
| --- | --- |
| 661 s | Cc1ccc(CNC(=O)Nc2ccc3nnc(C)n3c2)cc1 |
| 781 s | CCS(=O)(=O)Nc1ccc(C2(C(=O)NCC3CCCO3)CCCCC2)cc1 (stereo unspecified) |
| 726 s | N#Cc1ccc(N2C=C(C(=O)N3CCOCC3)S(=O)(=O)c3ccc(F)cc32)cc1 |
| 1160 s | CC(C)n1cnc2c(NCCc3ccc(O)cc3)nc(-c3csc4ccccc34)nc21 |
| 927 s | COc1ccc(NC(=O)Nc2c(-c3ccc(C)cc3)nc3ccccn23)cc1OC |
| 958 s | O=S(=O)(c1cccn2c(SCc3ccccc3)nnc12)N1CCN(c2ccc(F)cc2)CC1 |
| 866 s | Cc1nc(-c2noc(-c3ccccc3)n2)cn1CC(=O)NCc1cccc(Cl)c1 |
| 629 s | Cc1cccc2nnc(N3CCN(C(=O)c4ccc(Cl)cc4)CC3)n12 |
| 886 s | O=C(NCCOc1ccccc1)C(=O)c1c[nH]c2ccccc12 |
| 1040 s | Cc1cc(=O)n(CC(=O)Nc2ccccc2F)c(-c2ccc(F)cc2)n1 |
| 1050 s | COc1cccc(Cn2cnc3c(-c4cccc(F)c4)csc3c2=O)c1 |
| 704 s | CCc1ccc(NS(=O)(=O)c2cc(-c3[nH]ncc3C(=O)N(C)C)oc2C)cc1 |
| 750 s | COc1ccc2c(Sc3ccccc3)c(C(=O)N3CCN(c4ccccn4)CC3)[nH]c2c1 |
| 678 s | COc1ccccc1NC(=O)c1[nH]c2cc(C)sc2c1CN(C)C |
| 608 s | O=C(c1cc(-c2ccncc2)n[nH]1)N1CCCC(C(=O)N2CCc3ccccc3C2)C1 (stereo unspecified) |
| 592 s | COC(=O)Nc1ccc(CC(=O)NC2CC2)cc1 |
| 668 s | CC(C)CCNC(=O)C1Cn2cccc2C(=O)N1C (stereo unspecified) |
| 808 s | CC(O)(CNC(=O)c1cccc(C(F)(F)F)c1)c1ccccc1 (stereo unspecified) |
| 656 s | COCCN(Cc1ccc(C)cc1)Cc1cc(=O)n2ccc(C)cc2n1 |
| 696 s | CSc1cccc(NC(=O)Cn2cnc3nc(N4CCC(C(=O)NC5CC5)CC4)sc3c2=O)c1 |
| 943 s | CCN1C(=O)COc2ccc(-c3csc(NC(=O)c4ccc(OC)c(OC)c4)n3)cc21 |
| 639 s | CCn1c(CCNC(=O)Cc2ccc(Cl)cc2)nc2cccnc21 |
| 711 s | O=C(NCc1ccc2c(c1)OCO2)C(=O)NCC1CCN(S(=O)(=O)C2CC2)CC1 |

| RP-LC retention time | Structure (SMILES) |
| --- | --- |
| 944 s | CCC(C)CC(=O)N1CCCN(C2=NS(=O)(=O)C(c3ccc(Cl)cc3)=C2C)CC1 (stereo unspecified) |
| 1010 s | CCN1C(=O)c2cc(S(=O)(=O)Nc3cccc(C)c3)ccc2Oc2cccnc21 |
| 1040 s | O=S(=O)(c1ccc(Cl)c(-c2nnc(-c3ccccc3)o2)c1)N1CCCC1 |
| 791 s | O=C(O)c1cc2cc(F)ccc2[nH]1 |
| 834 s | Cc1ccc(-n2c(=O)c3c(cc(C)n3C)n(CC(=O)Nc3ccccc3)c2=O)cc1 |
| 615 s | Cn1c(=O)n(CCN2CCOCC2)c(=O)c2c1nc1n2CCCN1c1ccccc1 |
| 660 s | COC(=O)c1ccc2c(=O)n(-c3ccc4c(c3)OCO4)c(N3CCN(c4ccccn4)CC3)nc2c1 |
| 682 s | CCN1CCCC1CNC(=O)c1nc(-c2oc3ccc(OC)cc3c2C)no1 (stereo unspecified) |
| 798 s | C1=CC2(C=C1)OC21CCC2(C=CC3(C2)OC3C2CCCCC2)CC1 (stereo unspecified) |
| 586 s | O=C(NCc1nnc(SCc2ccccn2)o1)c1ccccc1 |
| 951 s | COc1ccc(N2CC(c3nc(-c4cccc(Cl)c4)no3)CC2=O)cc1OC (stereo unspecified) |
| 917 s | CCN(CC)C(=O)c1ccc(Cn2nc(C)c(S(=O)(=O)N3CCC(C)CC3)c2C)cc1 |
| 988 s | Cc1nc(CSc2ncnc3sc(C)c(C)c23)cs1 |
| 731 s | Cc1ccc(-n2nc3c(=O)n(CCCC(=O)NCC4CCCO4)nc(C)c3c2C)cc1 (stereo unspecified) |
| 587 s | Cc1cnc(C2CC2)n1CCNS(=O)(=O)c1ccccc1F |
| 619 s | Cc1cc(C)cc(N2C(=O)CN(CC(C)C)[C@H]3CS(=O)(=O)C[C@H]32)c1 |
| 1070 s | COc1ccccc1NC(=O)c1ccc(Br)cc1F |
| 967 s | COc1c(C=O)c(O)cc2c1C(=O)c1ccccc1C2=O |
| 651 s | CC1CCN(c2cc(-n3ccnc3)ncn2)CC1 |
| 826 s | O=C(C1=CN(c2ccc(Br)cc2)c2cc(F)ccc2S1(=O)=O)N1CCOCC1 |
| 829 s | CC(C)CN1CCCCc2cc(C(N)=O)sc21 |
| 701 s | Cc1cc(NC(=O)Cc2csc(NC(=O)c3ccc(F)cc3)n2)sn1 |
| 814 s | Cc1nnc(-c2c(S(=O)(=O)NC3CCCCC3)c(C)n(C)c2C)o1 |
